Assay results as given in patent publication US6809091B1, “Substances capable of inducing apoptosis” (Takara Bio Inc., priority 1998, dated 2004).
Like-named read-outs stand apart in the source and are kept apart here.

What was measured:
[1] = tested on: human promyelocytic leukemia HL-60; test: MTT method: cell growth suppressing / apoptosis-inducing activity; type: cell-based; conditions: for apoptosis-inducing activity / cancer cell growth suppressing activity: HL-60, MTT method of Example 1, 48 hours; for cancer cell growth suppressing activity and apoptic body formation: HL-60, MTT method of Example 4-(2), sample in 50% ethanol, 16 hours
Description: Heated and non-heated substances of each of them were sterilized by a membrane filter of 0.22 μm to prepare samples for the apoptosis-inducing activity. Those samples were diluted with aseptic distilled water to an extent of 2-, 4-, 8-, 16- and 32-fold, their activity for suppressing the cell growth to the human promyelocytic leukemia HL-60 was measured as follows and their intensity or the apoptosis-inducing activity was compared.
Thus, 10 μl of each of the diluted solutions or 10 μl of aseptic distilled water were placed in a well of a 96-well microtiter plate. Then 90 μl of an RPMI 1640 medium (manufactured by Nissui) containing 10% of fetal bovine serum (manufactured by Gibco) which contained 5000 HL-60 cells (ATCC CCL240) were added thereto and an incubation was carried out at 37° C. for 48 hours in the presence of 5% carbon dioxide gas. After observing the shape of the cells under an optical microscope, 10 μl of a phosphate-buffered aqueous saline solution containing 5 mg/ml of 3-(4,5-dimethylthiazol-2-yl)-2,5-diphenyltetrazolium bromide (MTT; manufactured by Sigma), an incubation was continued for four hours more and state of growth of cells and formation of formazan produced in the cells were observed under a microscope. Further, 100 μl of 2-propanol containing 0.04N HCl were added thereto followed by well stirring and the absorbance at 590 nm was measured and used as a degree of growth of cells (an MTT method).
The solvent of the fraction was appropriately evaporated to substitute with a 50% aqueous solution of ethanol and the activity for suppressing the growth of cancer cells was measured by an MTT method mentioned in Example 1 except that the sample was diluted to a two-fold series using a 50% aqueous solution of ethanol and 2 μl of each of the diluted solutions or 2 μl of a 50% aqueous solution of ethanol were placed in a well of a flat-bottom 96-well microplate. Time for incubation was 16 hours.

HL-60 cells = test: Trypan Blue staining, survival rate; type: cell-based; conditions: Homo sapiens, HL-60, 24 hours, concentration where survival rate becomes 50%, read-out: Survival Rate50
Description: (3) The cells which were incubated for 24 hours by the same manner as in Example 9-(2) were stained with 0.4% Trypan Blue and observed under an optical microscope, numbers of viable cells which were not stained and of dead cells which were stained in blue were measured, concentration (survival rate50) of each of the samples where survival rate becomes 50% was determined and the result is given in Table 1.

DSEK cells = test: cell growth of DSEK cells (rheumatism model in vitro), Premix WST-1; type: cell-based, human; conditions: for IC50: Homo sapiens; for inhibition of growth of rheumatism cells / antirheumatic activity: compared with the case where PBS was added
Description: (2) DSEK cells (owned by Department of Second Internal Medicine, Total Medical Center, Saitama Medical College, as a rhematism model in vitro) which were fibroblast cell strains established from synovial membrane from a patient suffering from human chronic rheumatism were incubated in an Iscov-MEM medium (IMDM; manufactured by Gibco BRL) containing 10% of FBS (manufactured by BioWhittaker) at 37° C. in the presence of 5% CO2 until the cells saturated in a incubator, a trypsin-EDTA solution (manufactured by BioWhittaker) was suspended in the above medium to an extent of 3×10^4 cells/ml and each 200 μl of the suspension was placed in each well of a 96-well microtiter plate (manufactured by Falcon). When the cells were almost in a state of 80% saturation after 5-7 days from incubation, the medium was exchanged and 200 μl of the above medium containing 50, 75, 100 or 150 μM of 4-hydroxy-2-cyclopenten-1-one or 4,5-dihydroxy-2-pentenal were added thereto.
A time course of 96 hours was adopted and, every 24 hours, 10 μl of Premix WST-1 (MK 400; manufactured by Takara Shuzo) were added followed by reacting at 37° C. for 3.5 hours and the value (A450-650) obtained by subtracting the absorbance at 650 nm (A650) from that at 450 nm (A450) was defined as a degree of cell growth.
(3) DSEK cells were prepared under the conditions as mentioned in Example 15-(2) and 20 μl of medium containing 25, 50, 75, 100, 200 or 400 μM of 4,5-dihydroxy-2-pentenal, 4-hydroxy-2-cyclopenten-1-one, 4-(9-guaninyl)-2-cyclopenten1-one or 2-(3,4-dihydroxy-1-butenyl)-4-(2-formylvinyl)-1,3-dioxolane were added thereto.
A time course of 72 hours was adopted and, every 24 hours, degree of cell growth was measured with a lapse of time. IC50 of each of the compounds was measured as well.

human IL-1α = test: cytokine production in DSEK cells, ELISA; type: cell-based; conditions: DSEK cell incubation, supernatant every 24 hours
Description: Now, in the DSEK cell incubation, 150 μl/well of the supernatant liquid of the medium were recovered every 24 hours and influence of 4-hydroxy-2-cyclopenten-1-one or 4,5-dihydroxy-2-pentenal on the production of cytokines (human TGF-β, human FGF-β, human IL-1α and human IL-10) was measured using an ELISA-kit specific to each of the cytokine (the kit manufactured by INTERGEN or human FGF-β and human IL-10; and the kit manufactured by Promega for human IL-1α and human TGF-β).

[2] = 24 hours, Example 15-(3), read-out: IC50
[3] = 72 hours, Example 15-(3), read-out: IC50
[4] = 48 hours, Example 15-(2), read-out: IC50, 50% cell growth inhibiting concentration
[5] = 96 hours, Example 15-(2), read-out: IC50, 50% cell growth inhibiting concentration

Compound | IC50 (HL-60 cells) [µM] | IC50 (DSEK cells; [2]) [µM] | IC50 (DSEK cells; [3]) [µM] | inhibition of growth of rheumatism cells / antirheumatic activity (DSEK cells) | production of human IL-1α (human IL-1α) | cancer cell growth suppressing activity and apoptic body formation [1] | Degree of Cell Growth (DSEK cells; 50 μM, 24 hours) [A450-650] | Degree of Cell Growth (DSEK cells; 50 μM, 48 hours) [A450-650] | Degree of Cell Growth (DSEK cells; 50 μM, 72 hours) [A450-650] | Degree of Cell Growth (DSEK cells; 50 μM, 96 hours) [A450-650] | Degree of Cell Growth (DSEK cells; 75 μM, 24 hours) [A450-650] | Degree of Cell Growth (DSEK cells; 75 μM, 48 hours) [A450-650] | Degree of Cell Growth (DSEK cells; 75 μM, 72 hours) [A450-650] | Degree of Cell Growth (DSEK cells; 75 μM, 96 hours) [A450-650] | Degree of Cell Growth (DSEK cells; 100 μM, 24 hours) [A450-650] | Degree of Cell Growth (DSEK cells; 100 μM, 48 hours) [A450-650] | Degree of Cell Growth (DSEK cells; 100 μM, 72 hours) [A450-650] | Degree of Cell Growth (DSEK cells; 100 μM, 96 hours) [A450-650] | Degree of Cell Growth (DSEK cells; 150 μM, 24 hours) [A450-650] | Degree of Cell Growth (DSEK cells; 150 μM, 48 hours) [A450-650] | also measured
Nc1nc2c(ncn2C2C=CC(=O)C2)c(=O)[nH]1 (centres unmarked) [4-(9-guaninyl)-2-cyclopenten-1-one] | 67.9 | 132 | 67 | significant inhibition | activated | – | – | – | – | – | – | – | – | – | – | – | – | – | – | – | concentration of dried product showing deformation and apoptic body formation in the cells ([1]; HL-60, MTT assay): about 13 μg/ml
O=CC=CC(O)CO (single isomer, unassigned) [4,5-dihydroxy-2-pentenal, trans-4,5-dihydroxy-2-pentenal] | 124 | 232 | 119 | significant inhibition | activated | strong activity | 1.12 | 0.83 | 0.96 | 0.98 | 1.11 | 0.77 | 0.67 | 0.59 | 1.02 | 0.63 | 0.54 | 0.59 | 0.96 | 0.61 | apoptosis-inducing activity / cancer cell growth suppressing activity [1]: strong; apoptosis-inducing activity / cancer cell growth suppressing activity ([1]; listed as fraction 4): strong activity; Degree of Cell Growth (DSEK cells; 150 μM, 72 hours): 0.41 A450-650; Degree of Cell Growth (DSEK cells; 150 μM, 96 hours): 0.55 A450-650; IC50 (DSEK cells; [4]): 165 µM; IC50 (DSEK cells; [5]): 75 µM
O=C/C=C/C1COC(/C=C/C(O)CO)O1 (stereo not drawn) [2-(trans-3,4-dihydroxy-1-butenyl)-4-(trans-2-formylvinyl)-1,3-dioxolane] | 74.4 | 267 | 68 | significant inhibition | activated | noted | – | – | – | – | – | – | – | – | – | – | – | – | – | – | –
O=C1C=CC(O)C1 (centres unmarked) [4-hydroxy-2-cyclopenten-1-one] | 25.5 | 207 | 60 | significant inhibition | inhibited | strong activity | 0.57 | 0.71 | 0.73 | 0.54 | 0.51 | 0.68 | 0.68 | 0.55 | 0.50 | 0.64 | 0.67 | 0.51 | 0.46 | 0.55 | Degree of Cell Growth (DSEK cells; 150 μM, 72 hours): 0.63 A450-650; Degree of Cell Growth (DSEK cells; 150 μM, 96 hours): 0.50 A450-650; IC50 (DSEK cells; [4]): 60 µM; IC50 (DSEK cells; [5]): 35 µM
